Measured values taken from patent US20040102364A1, “Backbone cyclized radiolabelled somatostatin analogs” (priority 2001, published 2004).
Read-outs that look alike come from different tables or passages of the source.

Target: SST-R2 (Homo sapiens, UniProt P30874)
Assay: Inhibition of SRIF binding to SST-R2 (species not stated)
Conditions: for inhibition at 10 pM: read-out: IC50 Screen SRIF Inhibited (%) 0.01 nM; for inhibition at 0.0001 µM: read-out: IC50 Screen SRIF Inhibited (%) 0.1 nM; for inhibition at 0.001 µM: read-out: IC50 Screen SRIF Inhibited (%) 1 nM
Experimental: The SST analogs were tested for their potency in inhibition of the binding of ^125I-Tyr^11-SRIF (based on the method described by Raynor et. al., Molecular Pharmacology 43: 838, 1993) to membrane preparations expressing the transmembranal SST receptors (SST-R1, 2, 3, 4 or 5). The receptor preparations used for these tests were either from the cloned human receptors selectively and stably expressed in Chinese Hamster Ovary (CHO) cells or from cell lines naturally expressing the SST-Rs. […] The binding reactions were filtered, the filters were washed and the bound radioactivity was counted in β counter after addition of scintillation solution. […]

[1] = Quick Screen, 10 nM, SST-R2, read-out: Quick Screen SRIF Inhibited (%) 10 nM
[2] = Quick Screen, 100 nM, SST-R2, read-out: Quick Screen SRIF Inhibited (%) 100 nM
[3] = read-out: IC50 Screen SRIF Inhibited (%) 10 nM
[4] = read-out: IC50 Screen SRIF Inhibited (%) 100 nM

SST-R2, sequence (P30874 whole entry): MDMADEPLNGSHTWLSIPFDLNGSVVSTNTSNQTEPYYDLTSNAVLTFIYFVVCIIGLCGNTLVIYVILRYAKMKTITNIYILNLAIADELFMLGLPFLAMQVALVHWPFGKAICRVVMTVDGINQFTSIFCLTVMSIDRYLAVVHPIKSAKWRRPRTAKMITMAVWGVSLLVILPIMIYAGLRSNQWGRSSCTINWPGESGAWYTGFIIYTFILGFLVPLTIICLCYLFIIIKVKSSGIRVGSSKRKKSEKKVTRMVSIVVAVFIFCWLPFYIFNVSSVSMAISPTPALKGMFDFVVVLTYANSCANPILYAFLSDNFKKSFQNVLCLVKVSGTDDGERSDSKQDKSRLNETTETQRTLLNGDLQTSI

Row | Compound | inhibition at 0.01 µM [1] | inhibition at 0.1 µM [2] | inhibition at 10 pM | inhibition at 0.0001 µM | inhibition at 0.001 µM | inhibition at 0.01 µM [3] | inhibition at 0.1 µM [4] | SRIF Inhibited (%) 10 nM (10 nM, SST-R2) | SRIF Inhibited (%) 100 nM (100 nM, SST-R2) | further results
1 | C[C@@H](O)[C@@H]1NC(=O)[C@H](CCCCN)NC(=O)[C@@H](Cc2c[nH]c3ccccc23)NC(=O)[C@H](Cc2c[nH]c3ccccc23)NC(=O)[C@H](Cc2ccccc2)NC(=O)[C@@H](NC(=O)CNC(=O)CN(CCN(CCN(CC(=O)O)CC(=O)O)CC(=O)O)CC(=O)O)CCNC(=O)CCCN(CC(N)=O)C(=O)[C@H](Cc2ccccc2)NC1=O [PTR 3319, In-DTPA-Gly-Dab*-Phe-Trp-(D)Trp-Lys-Thr-Phe-GlyC3*-NH2] | 65% | 83% | -8.5% | -0.67% | 30% | 57% | 86% |  |  | 
2 | C[C@@H](O)[C@@H]1NC(=O)[C@H](CCCCN)NC(=O)[C@@H](Cc2c[nH]c3ccccc23)NC(=O)[C@H](Cc2c[nH]c3ccccc23)NC(=O)[C@H](Cc2ccccc2)NC(=O)[C@@H](NC(=O)CN(CCN(CCN(CC(=O)O)CC(=O)O)CC(=O)O)CC(=O)O)CCNC(=O)CCCN(CC(N)=O)C(=O)[C@H](Cc2ccccc2)NC1=O [PTR 3337, In-DTPA-Dab*-Phe-Trp-(D)Trp-Lys-Thr-Phe-GlyC3*-NH2] | 53% | 87% | -8.5% | 10% | 37% | 69% | 89% |  |  | 
3 | C[C@@H](O)[C@@H]1NC(=O)[C@H](CCCCN)NC(=O)[C@@H](Cc2c[nH]c3ccccc23)NC(=O)[C@H](Cc2c[nH]c3ccccc23)NC(=O)[C@H](Cc2ccccc2)NC(=O)[C@@H](NC(=O)CCNC(=O)CN(CCN(CCN(CC(=O)O)CC(=O)O)CC(=O)O)CC(=O)O)CCNC(=O)CCCN(CC(N)=O)C(=O)[C@H](Cc2ccccc2)NC1=O [PTR 3339, In-DTPA-b-Ala-Dab*-Phe-Trp-(D)Trp-Lys-Thr-Phe-GlyC3*-NH2] | 27% | 69% | -11% | 3% | 17% | 52% | 78% |  |  | 
4 | C[C@@H](O)[C@@H]1NC(=O)[C@H](CCCCN)NC(=O)[C@@H](Cc2c[nH]c3ccccc23)NC(=O)[C@H](Cc2c[nH]c3ccccc23)NC(=O)[C@H](Cc2ccccc2)NC(=O)[C@@H](NC(=O)CCCNC(=O)CN(CCN(CCN(CC(=O)O)CC(=O)O)CC(=O)O)CC(=O)O)CCNC(=O)CCCN(CC(N)=O)C(=O)[C@H](Cc2ccccc2)NC1=O [PTR 3341, In-DTPA-GABA-Dab*-Phe-Trp-(D)Trp-Lys-Thr-Phe-GlyC3*-NH2] | 35% | 76% | -9.5% | -4.8% | 12% | 44% | 76% |  |  | 
5 | In-DTPA-5-aminopentanoic acid-Dab*-Phe-Trp-(D)Trp-Lys-Thr-Phe-GlyC3*-NH2 [PTR 3343] |  |  |  |  |  |  |  |  |  | IC50 Screen SRIF Inhibited (%) 0.01 nM (IC50 Screen, 0.01 nM, SST-R2): −16%; IC50 Screen SRIF Inhibited (%) 0.1 nM (IC50 Screen, 0.1 nM, SST-R2): −3.8%; IC50 Screen SRIF Inhibited (%) 1 nM (IC50 Screen, 1 nM, SST-R2): 10%; IC50 Screen SRIF Inhibited (%) 10 nM (IC50 Screen, 10 nM, SST-R2): 44%; IC50 Screen SRIF Inhibited (%) 100 nM (IC50 Screen, 100 nM, SST-R2): 76%; Quick Screen SRIF Inhibited (%) 10 nM (Quick Screen, 10 nM, SST-R2): 37%; Quick Screen SRIF Inhibited (%) 100 nM (Quick Screen, 100 nM, SST-R2): 79%
6 | In-DTPA-Gly-Phe(C3**)-Cys*-Phe-(D)Trp-Lys-Thr-Cys*-Phe(N3**)-NH2 [PTR 3347] |  |  |  |  |  |  |  | 38% | 51% | 

The next lines start with results.

Row | inhibition at 0.01 µM [1] | inhibition at 0.1 µM [2] | inhibition at 10 pM | inhibition at 0.0001 µM | inhibition at 0.001 µM | inhibition at 0.01 µM [3] | inhibition at 0.1 µM [4] | SRIF Inhibited (%) 10 nM (10 nM, SST-R2) | SRIF Inhibited (%) 100 nM (100 nM, SST-R2) | Compound | further results
7 |  |  |  |  |  |  |  | 8% | 34% | In-DTPA-3-aminomethylbenzoic acid-Phe(C3**)-Cys*-Phe-(D)Trp-Lys-Thr-Cys*-Phe(N3**)-NH2 [PTR 3355] | 
8 |  |  |  |  |  |  |  | 14% | 59% | In-DTPA-5-aminopentanoic acid-Phe(C3**)-Cys*-Phe-(D)Trp-Lys-Thr-Cys*-Phe(N3**)-NH2 [PTR 3353] | 
9 |  |  |  |  |  |  |  | 5% | 53% | In-DTPA-GABA-Phe(C3**)-Cys*-Phe-(D)Trp-Lys-Thr-Cys*-Phe(N3 **)-NH2 [PTR 3351] | 
10 |  |  |  |  |  |  |  | 20% | 54% | In-DTPA-b-Ala-Phe(C3**)-Cys*-Phe-(D)Trp-Lys-Thr-Cys*-Phe(N3**)-NH2 [PTR 3349] | 
